Results on one molecule are retold here after US20050236004A1, “Healthcare model of wellness” (priority 2004, published 2005).

For data set [1] the following is noted: cited from earlier work.
Data set [2] is described as follows: first principles model of blood serum level of a drug over time.
Source text: The relevant internal variables for the modal of FIG. 18 are: • Ingested amount=I • Blood amount=B
The relevant parameters for the model are: • Digestion rate=κ • Absorption rates=α,β • Conversion rate=γ • Excretion rate=ω
The model equations are then: dI/dt=−αI−κ dB/dt−−ωB−γ+αl+κ−βD dD/dt=κ−βD In most cases, these parameters are not available directly, but most infer them from values such as the excretion half-life T1/2 and the time of maximum blood levels, Tmax. For most medications, the digestion and conversion rates are small or zero, and, as such, it is only necessary to estimate the absorption and excretion rates α and ω. […] The system of equations is then given by: dI/dt=αl dB/dt=−ωB+αl which can be solved exactly for the case of a single ingested amount I0 by converting to matrix form: dV/dt=MV where V the column vector [I,B] and M is the coefficient matrix [−α,0][α,−ω]. This matrix equation has the solution: V=exp(Mt)V0 Where exp(Mt) is the exponentiation of M as a matrix taylor series, and V0 is the initial vector. Inserting M=PDP^−1 where D is a diagonal matrix in the taylor series gives: exp(Mt)=Pexp(Dt)P^−1 The eigenvalues are easily given by setting det(D−λI)=0 giving (−α−λ)(−ω−λ)=0, and so λ=−α,−ω D=[−α,0][0,−ω] Solving for the eigenvectors of comprising P gives the following relationship: P=[ω−α)/α,0][1,1] […]
For data set [3] the following is noted: in vivo.

SMILES strings stand for the structures.

Broadly, the Cmax is the highest concentration seen after dosing. For orientation: Tmax means the time at which the peak concentration occurs. On to `Cc1onc(-c2ccccc2)c1-c1ccc(S(N)(=O)=O)cc1` [BEXTRA, Valdecoxib], for which, in data set [1] (at 14 day equilibrium), the Cmin is recorded as 21.9 ng/mL. Moreover, the “Area_Under_Curve(24 hr)” value in data set [1] (given value, 24 hr) is 1479.0 ng·h/mL. In addition, in data set [1] (given value), the Cmax was 161.1 ng/mL, the “Elimination Half-Life” value was 8.11 h and the time of peak concentration (Tmax) was 2.25 h. Further, the “absorption coefficient α” value in data set [2] (computed from Tmax by iterative formula) stood at 1.293 h⁻¹. For the same molecule, the “excretion coefficient ω” value in data set [2] (ln(2)/half-life) was 0.08547 h⁻¹. The Cmax/AUC in data set [3] stood at 0.1089.
